In ChEMBL document CHEMBL1135148, “Synthesis and profile of SCH351591, a novel PDE4 inhibitor” (Bioorg Med Chem Lett, 2002):

Key:
[1] = target: T1, Phosphodiesterase 4 (Homo sapiens, UniProt P27815+Q08499+Q07343+Q08493); assay: Relative inhibition of phosphodiesterase 4 and rolipram binding; format: protein assay
[2] = target: T1, Phosphodiesterase 4; assay: Inhibition of Phosphodiesterase 4 from human U937 cells; format: cell-based; conditions: u-937
[3] = target: Phosphodiesterase 4 (Rattus norvegicus, UniProt P14270+P14646+P14644+P54748); assay: Inhibition of rolipram binding to PDE4 of rat brain
[4] = Cmax in guinea pig after 3mg/kg oral dose; format: ADME, organism-based, Cavia porcellus; design: dose 3 mg/kg, route oral; conditions: in vivo
[5] = target: Phosphodiesterase 3 (Homo sapiens) (UniProt Q14432+Q13370); assay: Inhibition of Phosphodiesterase 3 from human platelets; conditions: concentration not given here
[6] = target: T1, Phosphodiesterase 4; assay: Inhibition of Phosphodiesterase 4; format: protein assay
[7] = AUC in guinea pig after 3mg/kg oral dose; format: ADME, organism-based, Cavia porcellus, Plasma
[8] = AUC in rat after 3mg/kg oral dose; format: ADME, organism-based; conditions: plasma
[9] = target: cGMP-specific 3',5'-cyclic phosphodiesterase (Homo sapiens) (UniProt O76074); assay: Inhibition of Phosphodiesterase 5 from human platelets; conditions: concentration not given here
[10] = Cmax in rat after 3mg/kg oral dose; format: ADME, organism-based; design: dose 3 mg/kg, route oral; conditions: in vivo
[11] = target: Phosphodiesterase 1 (Homo sapiens) (UniProt P54750+Q01064+Q14123); assay: Inhibition of recombinant Phosphodiesterase 1; format: protein assay; conditions: concentration not given here
[12] = target: Phosphodiesterase 7 (Homo sapiens) (UniProt Q13946+Q9NP56); assay: Inhibition of Phosphodiesterase 7 from human T-lymphocyte cell line; conditions: concentration not given here
Sequence of Phosphodiesterase 7 (Homo sapiens) (Q13946 whole entry, looked up): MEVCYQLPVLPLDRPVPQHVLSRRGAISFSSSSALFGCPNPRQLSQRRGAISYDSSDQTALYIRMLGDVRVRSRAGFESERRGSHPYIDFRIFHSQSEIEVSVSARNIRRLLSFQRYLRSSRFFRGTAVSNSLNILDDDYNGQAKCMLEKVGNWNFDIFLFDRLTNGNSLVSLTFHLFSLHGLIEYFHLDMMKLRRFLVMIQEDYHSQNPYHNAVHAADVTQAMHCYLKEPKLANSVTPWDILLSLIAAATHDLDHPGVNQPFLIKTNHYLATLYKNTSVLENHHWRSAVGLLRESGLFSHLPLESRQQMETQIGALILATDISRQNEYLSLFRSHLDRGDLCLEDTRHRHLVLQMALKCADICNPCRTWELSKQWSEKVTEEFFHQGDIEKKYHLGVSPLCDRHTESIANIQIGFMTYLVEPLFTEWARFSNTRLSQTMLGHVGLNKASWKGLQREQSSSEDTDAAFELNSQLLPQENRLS
Sequence of Phosphodiesterase 7 (Homo sapiens) (Q9NP56 whole entry, looked up): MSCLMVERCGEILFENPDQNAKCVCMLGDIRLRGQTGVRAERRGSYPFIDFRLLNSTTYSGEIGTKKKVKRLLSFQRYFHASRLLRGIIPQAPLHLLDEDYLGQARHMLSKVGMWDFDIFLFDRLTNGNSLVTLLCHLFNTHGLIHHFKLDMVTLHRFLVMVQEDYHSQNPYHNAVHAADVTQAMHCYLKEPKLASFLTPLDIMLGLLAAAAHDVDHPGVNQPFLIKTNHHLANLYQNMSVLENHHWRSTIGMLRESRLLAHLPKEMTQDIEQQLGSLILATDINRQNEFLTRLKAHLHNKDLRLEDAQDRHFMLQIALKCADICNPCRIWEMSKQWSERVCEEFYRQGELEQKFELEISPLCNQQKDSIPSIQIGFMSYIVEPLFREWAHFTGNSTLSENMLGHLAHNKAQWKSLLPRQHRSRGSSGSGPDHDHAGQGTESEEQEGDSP

[13] = target: cGMP-dependent 3',5'-cyclic phosphodiesterase (Homo sapiens) (UniProt O00408); assay: Inhibition of Phosphodiesterase 2; conditions: concentration not given here
Sequence of cGMP-dependent 3',5'-cyclic phosphodiesterase (Homo sapiens) (O00408 whole entry): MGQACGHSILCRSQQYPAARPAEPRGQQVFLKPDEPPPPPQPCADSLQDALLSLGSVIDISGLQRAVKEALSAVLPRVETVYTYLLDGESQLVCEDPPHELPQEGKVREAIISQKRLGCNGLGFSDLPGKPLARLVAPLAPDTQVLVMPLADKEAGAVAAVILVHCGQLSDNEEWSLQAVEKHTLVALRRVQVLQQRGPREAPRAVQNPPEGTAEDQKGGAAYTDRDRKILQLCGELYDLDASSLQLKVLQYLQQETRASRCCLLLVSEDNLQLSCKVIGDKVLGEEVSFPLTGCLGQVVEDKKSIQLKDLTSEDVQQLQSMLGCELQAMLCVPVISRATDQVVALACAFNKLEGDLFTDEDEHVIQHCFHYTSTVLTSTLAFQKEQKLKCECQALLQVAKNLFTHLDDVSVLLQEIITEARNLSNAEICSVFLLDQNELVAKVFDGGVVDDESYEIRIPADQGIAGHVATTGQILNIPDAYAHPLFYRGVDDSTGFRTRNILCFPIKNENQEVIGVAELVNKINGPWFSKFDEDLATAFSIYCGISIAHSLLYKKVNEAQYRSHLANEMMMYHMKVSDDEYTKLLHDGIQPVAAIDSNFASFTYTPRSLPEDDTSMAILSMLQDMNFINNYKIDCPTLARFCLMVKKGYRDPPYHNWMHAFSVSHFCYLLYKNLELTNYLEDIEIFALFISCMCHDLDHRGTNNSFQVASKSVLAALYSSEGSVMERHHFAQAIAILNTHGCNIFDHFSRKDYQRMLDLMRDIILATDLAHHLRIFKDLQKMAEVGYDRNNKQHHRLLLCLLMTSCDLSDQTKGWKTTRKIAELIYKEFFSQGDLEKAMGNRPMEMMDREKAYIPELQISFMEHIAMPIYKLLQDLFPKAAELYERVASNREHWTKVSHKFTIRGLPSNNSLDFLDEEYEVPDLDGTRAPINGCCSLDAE

| Compound | Ratio [1] | IC50 [2] | IC50 [3] | further results |
| --- | --- | --- | --- | --- |
| COc1ccc(C(=O)Nc2c(C)c[n+]([O-])cc2C)c2ccc(C(F)(F)F)nc12 | 0.39 | 150 nM | 380 nM | – |
| COc1ccc(C(=O)Nc2c(Cl)c[n+]([O-])cc2Cl)c2ccc(C(F)(F)F)nc12 [SCH-351591] | 0.4 | 60 nM | 150 nM | Cmax [4]: 1390 ng/mL; inhibition [5]: 31%; IC50 [6]: 60 nM; AUC ([7]; in vivo): 15757 ng·h/mL; AUC ([7]; plasma, read-out: AUC): 15800 ng·h/mL; AUC [8]: 50500 ng·h/mL; inhibition [9]: 5%; Cmax [10]: 3060 ng/mL; inhibition [11]: 15%; inhibition [12]: 10%; inhibition [13]: 0% |
| COc1ccc(C(=O)Nc2c(F)c[n+]([O-])cc2F)c2ccc(C(F)(F)F)nc12 | 1.17 | 70 nM | 60 nM | – |
| COc1ccc(C(=O)Nc2ccncc2Cl)c2ccc(C(F)(F)F)nc12 | 10 | 1120 nM | 110 nM | – |
| COc1ccc(C(=O)Nc2c(C)cncc2C)c2ccc(C(F)(F)F)nc12 | 2.1 | 120 nM | 58 nM | – |
| COc1ccc(C(=O)Nc2cc[n+]([O-])cc2Cl)c2ccc(C(F)(F)F)nc12 | 0.65 | 240 nM | 370 nM | – |
| COc1ccc(C(=O)Nc2c(F)cncc2F)c2ccc(C(F)(F)F)nc12 | 0.94 | 35 nM | 38 nM | – |
| COc1ccc(C(=O)Nc2c(Cl)cncc2Cl)c2ccc(C(F)(F)F)nc12 | 0.66 | – | 77 nM | Cmax [4]: 380 ng/mL; AUC ([7]; in vivo): 1174 ng·h/mL; AUC ([7]; plasma, read-out: AUC): 1170 ng·h/mL; AUC [8]: 6860 ng·h/mL |
